Structures can show the parent of a compound that is named as a salt.
What follows are compounds tested on Plasmodium falciparum: 3D7 strain (assay: P. falciparum 3D7 asexual blood stage assay (SYBR green readout)). Details: P. falciparum 3D7 in human erythrocytes, 72 h incubation, SYBR green fluorescence; hydrochloride.
Assay type: cell-based
Method in brief: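 3D7-infected erythrocytes (5% haematocrit, 0.5% parasitaemia) were exposed 72 h at 37 °C under 1% O2/3% CO2 to a 20-point titration (50,000-15 nM final, 0.5% DMSO). Parasite DNA was read by SYBR green fluorescence after overnight lysis. Percent inhibition was set against mefloquine and DMSO, and EC50 came from a biphasic two-site fit.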

In the case of `C[C@H]1C[C@@H](N2C(=N)N[C@](C)(c3cccc(-c4cccc(C(O)C(F)F)c4)c3Cl)CC2=O)CCO1` (single isomer, unassigned) [Example 26, (6S)-6-(2-Chloro-3-{3-[(1S*)-2,2-difluoro-1-hydroxyethyl]phenyl}-phenyl)-2-imino-6-methyl-3-[(2S,4S)-2-methyltetrahydropyran-4-yl]hexahydropyrimidin-4-one hydrochloride], the IC50 is reported as 55 nM.

Same assay, conditions: Plasmodium falciparum, 3D7, Erythrocyte, 72 h, P. falciparum 3D7 in human erythrocytes, 72 h incubation, SYBR green fluorescence

`CC(n1cc(-c2cccc([C@]3(C)CC(=O)N([C@H]4CCO[C@@H](C)C4)C(=N)N3)c2Cl)nn1)C12CC(CO1)C2` (stereo partly drawn) [Example 125, (6S)-6-(2-Chloro-3-{1-[1-(2-oxa-bicyclo[2.1.1]hexan-1-yl)ethyl]-1,2,3-triazol-4-yl}phenyl)-2-imino-6-methyl-3-[(2S,4S)-2-methyl-tetrahydropyran-4-yl]hexahydro-pyrimidin-4-one trifluoroacetic acid salt] and `C[C@H]1C[C@@H](N2C(=N)N[C@](C)(c3cccc(-c4cn(-c5ccncc5)nn4)c3Cl)CC2=O)CCO1` [Example 119, (6S)-6-{2-Chloro-3-[1-(pyridin-4-yl)-1,2,3-triazol-4-yl]phenyl}-2-imino-6-methyl-3-[(2S,4S)-2-methyltetrahydropyran-4-yl]-hexahydropyrimidin-4-one trifluoroacetic acid salt] are within 1.5-fold of each other in IC50: 220 nM for the first, 296 nM for the second.

Going from `C[C@H]1C[C@@H](N2C(=N)N[C@](C)(c3cccc(-c4cnoc4)c3Cl)CC2=O)CCO1` [Example 54, (6S)-6-[2-Chloro-3-(isoxazol-4-yl)-phenyl]-2-imino-6-methyl-3-[(2S,4S)-2-methyltetrahydropyran-4-yl]hexahydropyrimidin-4-one trifluoroacetic acid salt] to `C[C@H]1C[C@@H](N2C(=N)N[C@](C)(c3cccc(-c4ccnnc4)c3Cl)CC2=O)CCO1` [Example 33, (6S)-6-[2-Chloro-3-(pyridazin-4-yl)phenyl]-2-imino-6-methyl-3-[(2S,4S)-2-methyltetrahydropyran-4-yl]hexahydropyrimidin-4-one trifluoroacetic acid salt], the IC50 rises from 42 nM to 186 nM (4.4-fold). The first is the more potent here.

`C[C@H]1C[C@@H](N2C(=N)N[C@](C)(c3cccc(-c4cccc(P(C)(C)=O)c4)c3Cl)CC2=O)CCO1` [Example 5, (6S)-6-[2-Chloro-3-(3-dimethyl-phosphorylphenyl)phenyl]-2-imino-6-methyl-3-[(2S,4S)-2-methyl-tetrahydropyran-4-yl]hexahydro-pyrimidin-4-one hydrochloride] and `C[C@H]1C[C@@H](N2C(=N)N[C@](C)(c3cccc(-c4cccc(Cl)c4)c3Cl)CC2=O)CCO1` [Example 17, (6S)-6-[2-Chloro-3-(3-chloro-phenyl)phenyl]-2-imino-6-methyl-3-[(2S,4S)-2-methyltetrahydro-pyran-4-yl]hexahydropyrimidin-4-one trifluoroacetic acid salt] are within 1.5-fold of each other in IC50: 101 nM for the first, 92 nM for the second.

`C[C@H]1C[C@@H](N2C(=N)N[C@](C)(c3cccc(-c4cccc(-c5ccn[nH]5)c4)c3Cl)CC2=O)CCO1` [Example 53, (6S)-6-{2-Chloro-3-[3-(1H-pyrazol-5-yl)phenyl]phenyl}-2-imino-6-methyl-3-[(2S,4S)-2-methyl-tetrahydropyran-4-yl]hexahydro-pyrimidin-4-one trifluoroacetic acid salt] and `C[C@H]1C[C@@H](N2C(=N)N[C@](C)(c3cccc(-c4cccc(S(C)(=O)=O)c4)c3Cl)CC2=O)CCO1` [Example 4, (6S)-6-[2-Chloro-3-(3-methyl-sulfonylphenyl)phenyl]-2-imino-6-methyl-3-[(2S,4S)-2-methyl-tetrahydropyran-4-yl]hexahydro-pyrimidin-4-one hydrochloride] are within 1.5-fold of each other in IC50: 25 nM for the first, 17 nM for the second.

Compared with `C[C@H]1C[C@@H](N2C(=N)N[C@](C)(c3cccc(-c4ccc(N=S(C)(C)=O)cc4F)c3Cl)CC2=O)CCC1(F)F` [Example 18, (6S)-6-[2-Chloro-3-(4-{[(dimethyl)-(oxo)-λ^6-sulfanylidene]amino}-2-fluorophenyl)phenyl]-3-[(1S,3S)-4,4-difluoro-3-methylcyclohexyl]-2-imino-6-methylhexahydro-pyrimidin-4-one hydrochloride], `CO[C@@H]1C[C@H](N2C(=N)N[C@](C)(c3cccc(-c4ccc(S(C)(=O)=O)cc4F)c3Cl)CC2=O)CCC1(F)F` (relative stereo) [Example 9, (6S)-6-{2-Chloro-3-[2-fluoro-4-(methylsulfonyl)phenyl]phenyl}-3-[(1R*,3R*)-4,4-difluoro-3-methoxycyclohexyl]-2-imino-6-methylhexahydropyrimidin-4-one hydrochloride] is 3.5-fold lower in IC50: 292 nM for the first, 84 nM for the second.

First: C[C@H]1C[C@@H](N2C(=N)N[C@](C)(c3cccc(-c4cncc(Cl)c4)c3Cl)CC2=O)CC[C@H]1O (relative stereo) [Example 82, (6S)-6-[2-Chloro-3-(5-chloro-pyridin-3-yl)phenyl]-3-[(1S*,3S*,4R*)-4-hydroxy-3-methylcyclohexyl]-2-imino-6-methylhexahydropyrimidin-4-one hydrochloride]
Second: C[C@@H]1C[C@H](N2C(=N)N[C@](C)(c3cccc(-c4cncc(Cl)c4)c3Cl)CC2=O)CC[C@@H]1O (relative stereo) [Example 83, (6S)-6-[2-Chloro-3-(5-chloro-pyridin-3-yl)phenyl]-3-[(1R*,3R*,4S*)-4-hydroxy-3-methylcyclohexyl]-2-imino-6-methylhexahydropyrimidin-4-one hydrochloride]
The IC50 of the first is 5.1-fold higher: 265 nM for the first, 52 nM for the second.

Compared with `C[C@@H]1C[C@H](N2C(=N)N[C@](C)(c3cccc(-c4cn(-c5cc(F)c(F)cc5F)nn4)c3Cl)CC2=O)CC[C@@H]1O` (relative stereo) [Example 113, (6S)-6-{2-Chloro-3-[1-(2,4,5-trifluorophenyl)-1,2,3-triazol-4-yl]-phenyl}-3-[(1R*,3R*,4S*)-4-hydroxy-3-methylcyclohexyl]-2-imino-6-methylhexahydro-pyrimidin-4-one hydrochloride], `C[C@@]1(c2cccc(-c3cn(-c4cccc(F)c4)nn3)c2Cl)CC(=O)N([C@H]2CCC(F)(F)[C@@H](O)C2)C(=N)N1` (relative stereo) [Example 108, (6S)-6-{2-Chloro-3-[1-(3-fluoro-phenyl)-1,2,3-triazol-4-yl]phenyl}-3-[(1S*,3S*)-4,4-difluoro-3-hydroxycyclohexyl]-2-imino-6-methylhexahydropyrimidin-4-one hydrochloride] is 1.7-fold lower in IC50: 540 nM for the first, 325 nM for the second.

Compared with `Cc1cc(-c2cccc([C@]3(C)CC(=O)N([C@H]4CCO[C@@H](C)C4)C(=N)N3)c2Cl)n(C)n1` [Example 52, (6S)-6-[2-Chloro-3-(2,5-dimethyl-pyrazol-3-yl)phenyl]-2-imino-6-methyl-3-[(2S,4S)-2-methyl-tetrahydropyran-4-yl]hexahydro-pyrimidin-4-one trifluoroacetic acid salt], `Cc1cc(-c2cccc([C@]3(C)CC(=O)N([C@H]4CCO[C@@H](C)C4)C(=N)N3)c2Cl)on1` [Example 32, (6S)-6-[2-Chloro-3-(3-methyl-isoxazol-5-yl)phenyl]-2-imino-6-methyl-3-[(2S,4S)-2-methyl-tetrahydropyran-4-yl]hexahydro-pyrimidin-4-one trifluoroacetic acid salt] is 8.8-fold lower in IC50: 438 nM for the first, 50 nM for the second.

`C[C@H]1C[C@H](N2C(=N)N[C@](C)(c3cccc(-c4ccc(OC(F)(F)F)nc4)c3Cl)CC2=O)CCS1(=O)=O` (relative stereo) [Example 80, (6S)-6-{2-Chloro-3-[6-(trifluoro-methoxy)pyridin-3-yl]phenyl}-2-imino-6-methyl-3-[(2S*,4R*)-2-methyl-1,1-dioxothian-4-yl]-hexahydropyrimidin-4-one hydrochloride] and `C[C@@H]1C[C@@H](N2C(=N)N[C@](C)(c3cccc(-c4ccc(C5CC5)nc4)c3Cl)CC2=O)CCS1(=O)=O` (relative stereo) [Example 68, (6S)-6-[2-Chloro-3-(6-cyclopropyl-pyridin-3-yl)phenyl]-2-imino-6-methyl-3-[(2R*,4S*)-2-methyl-1,1-dioxothian-4-yl]hexahydro-pyrimidin-4-one hydrochloride] are within 1.5-fold of each other in IC50: 1700 nM for the first, 1140 nM for the second.

First: C[C@H]1C[C@@H](N2C(=N)N[C@](C)(c3cccc(-c4ccc(NS(C)(=O)=O)cc4)c3Cl)CC2=O)CCC1(F)F [Example 14, N-[4-(2-Chloro-3-{(4S)-1-[(1S,3S)-4,4-difluoro-3-methylcyclohexyl]-2-imino-4-methyl-6-oxohexahydro-pyrimidin-4-yl}phenyl)phenyl]-methanesulfonamide trifluoroacetic acid salt]
Second: C[C@@]1(c2cccc(-c3cccc(Cl)c3)c2Cl)CC(=O)N([C@@H]2CCC(F)(F)[C@H](O)C2)C(=N)N1 (relative stereo) [Example 22, (S)-6-[2,3′-Dichloro(1,1′-biphenyl)-3-yl]-3-[(1R*,3R*)-4,4-difluoro-3-hydroxycyclohexyl]-2-imino-6-methyltetrahydropyrimidin-4(1H)-one trifluoroacetic acid salt]
The IC50 of the first is 1.6-fold lower: 97 nM for the first, 154 nM for the second. The first is the more potent here.

First: C[C@H]1C[C@@H](N2C(=N)N[C@](C)(c3cccc(-c4ccncc4)c3Cl)CC2=O)CCO1 [Example 39, (6S)-6-[2-Chloro-3-(pyridin-4-yl)-phenyl]-2-imino-6-methyl-3-[(2S,4S)-2-methyltetrahydropyran-4-yl]hexahydropyrimidin-4-one trifluoroacetic acid salt]
Second: C[C@H]1C[C@@H](N2C(=N)N[C@](C)(c3cccc(-c4ccc(F)cc4F)c3Cl)CC2=O)CCO1 [Example 51, (6S)-6-[2-Chloro-3-(2,4-difluoro-phenyl)phenyl]-2-imino-6-methyl-3-[(2S,4S)-2-methyltetrahydro-pyran-4-yl]hexahydropyrimidin-4-one trifluoroacetic acid salt]
The IC50 of the first is 2.8-fold higher: 269 nM for the first, 95 nM for the second.

`C[C@H]1C[C@@H](N2C(=N)N[C@](C)(c3cccc(-c4cc5cccnc5n4C)c3Cl)CC2=O)CCO1` [Example 30, (6S)-6-[2-Chloro-3-(1-methyl-pyrrolo[2,3-b]pyridin-2-yl)phenyl]-2-imino-6-methyl-3-[(2S,4S)-2-methyltetrahydropyran-4-yl]-hexahydropyrimidin-4-one trifluoroacetic acid salt] gave an IC50 of 199 nM.

— patent US20250134890A1, “ANTIMALARIAL HEXAHYDROPYRIMIDINE ANALOGUES” (UCB BIOPHARMA SRL, priority 2022, published 2025)
